Data set [1] in a line: In vitro drug permeation from Tecophilic film pouches loaded with a gemcitabine tablet (Example 1). The class given is physicochemical. To be noted: DI water at 37° C. The procedure:
Pouches formed of Tecophilic™ film and loaded with gemcitabine (GEM) were tested in vitro for drug permeation. The effect of gamma irradiation on these pouches was also studied. The pouches were made of HP-93A-100 and HP-60D-60 films with thickness of 0.5 mm (films provided by Lubrizol) (http://www.lubrizol.com/Medical/Products/Tecophilic.html). These thermoplastic polyurethanes (TPUs) were selected for their biocompatibility and ability to absorb equilibrium water content up to 100% of the weight of dry resin, as well as other properties. The material properties of the film materials used are given below in Table 1. Each pouch was made out of 2 films which were heat-sealed at all four edges of each pouch after loading each pouch with a single tablet of gemcitabine HCl or base formulated as follows: (1) Gemcitabine HCl: 89% GEM HCl, 10% Isomalt, 1% Lubritab (water insoluble), or […] Some of the pouches were gamma irradiated (25 kGy). The pouches were then placed into 21 mL DI water at 37° C. Thereafter, at each time point, 5× inversion, 1 mL sample was taken out followed by a 1 mL DI water refill.

Data set [2] is described as follows: physchem. The following applies: 37 °C, water.
Data set [3] in a line: In vitro release from Tecophilic film pouches loaded with gemcitabine HCl and urea tablets (Example 1A). The following applies: pouches with 1 gemcitabine HCl tablet and 4 urea tablets, DI water at 37° C. The class given is physicochemical. On the procedure:
Pouches constructed as in Example 1 were made, except each was loaded with 1 gemcitabine (GEM) HCl tablet and 4 tablets of urea. The pouches were then placed into 21 mL DI water at 37° C. Thereafter, at each time point, 5× inversion, 1 mL sample was taken out followed by a 1 mL DI water refill.

Data set [4] can be described thus: In vitro gemcitabine release from one-module and four-module devices with end wall disks (Example 5). The following applies: one module device, jar rotated at 4 rpm or not. The class given is physicochemical. On the procedure:
There were three experimental groups tested: 1) one module device with the releasing jar being rotated in the rotator at 4 rpm ('Rotator'), 2) one module device without the jar rotated ('Static'), and 3) four module device without the jar rotated ('Static'). Each module is comprised of silicone tube made of MED-4750 (Nusil) with the dimensions of 2.64 mm ID and 0.20 mm wall thickness. Multiple gemcitabine HCl tablets with 2.6 mm OD were loaded into the silicone tube with each module having a total gemcitabine HCl payload of approximately 190 mg. The tablet formulation was 90% gemcitabine HCl, 5% PVP, 2.5% Neusilin, and 2.5% magnesium stearate. […] Thermoplastic Polyurethanes) at each end of the tablet drug core. The dimensions of each disk were approximately 0.5 mm thickness and 3.0 mm OD. The OD (3.0 mm) of the disks was larger than the silicone tube ID (2.64 mm), and so the disks were frictionally fit in the silicone tube. Each module has a silicone outer washer, made of MED-4780 (Nusil), located next to each disk with silicone adhesive (MED3-4213) applied around the washer, to stabilize the outward migration of the disk. […] In addition, each module has a polyimide inner washer with 2.67 mm ID, 0.064 mm wall, and approximately 4 mm length. The inner washer was filled with a tablet so that the disk was initially in contact with the tablet. […]

A short description of data set [5]: Approximate solubility of drugs in water.

Counter-ions that a name gives are not always drawn.

As usually defined, the solubility is the dissolved amount per volume that the medium holds. A low value points to a poorly soluble substance.

For `Nc1ccn([C@@H]2O[C@H](CO)[C@@H](O)C2(F)F)c(=O)n1` [gemcitabine HCl], the “relative speed of release from pouches” value in data set [1] (comparison of film grades and of drug forms) is recorded as “released faster than gemcitabine base”. For the same compound, in data set [2], the solubility was ~80 mg/mL.

Take `Nc1ccn([C@@H]2O[C@H](CO)[C@@H](O)C2(F)F)c(=O)n1` [gemcitabine]: the “permeation through 0.5 mm Tecophilic film” value in data set [3] is on record as “permeated 0.5 mm Tecophilic™ film in one day”; in data set [1] (HP-93A-100 and HP-60D-60 pouches) it was “permeated 0.5 mm Tecophilic™ film”. Moreover, the “gemcitabine release rate, Static vs Rotator” value in data set [4] is listed as “no significant difference”.

As to `O=C(O[C@H]1C[C@H]2CC[C@@H](C1)[N+]21CCCC1)C(O)(c1ccccc1)c1ccccc1` [trospium chloride], the solubility in data set [5] (37 °C, water) was ~500 mg/mL.

For the compound `Cc1ccc(O)c([C@H](CCN(C(C)C)C(C)C)c2ccccc2)c1` [tolterodine tartrate], the solubility in data set [2] is ~12 mg/mL.

Consider `Nc1ccn([C@@H]2O[C@H](CO)[C@@H](O)C2(F)F)c(=O)n1` [gemcitabine base], for which the approximate solubility in data set [5] (water at 37° C.) is on record as ~15 mg/mL.

Regarding `NC(N)=O` [urea], the “permeation through 0.5 mm Tecophilic film” value in data set [3] was “permeated 0.5 mm Tecophilic™ film in one day”.

For the origin of these results see patent US12409304B2, “Drug delivery devices with drug-permeable component and methods” (TARIS Biomedical LLC, priority 2013, dated 2025).
